Some results are limits rather than exact numbers.

The test system of one assay is H526 cell line. As to the kind of experiment: Cell viability assay for H526 cell line. In kind it is cell-based. Conditions: Homo sapiens, NCI-H526, 120 h; H526 cells, 5 days, EZ-Cytox, 0.46-3000 nM. The procedure, abridged: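 NCI-H526 cells exposed to compounds for 5 days in a CO2 incubator; viability read as absorbance at 450 nm after 3 min plate shaking; IC50 derived from treatment response.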

In another assay the test system is MRC-5 cell line. As to the kind of experiment: Cell viability assay for MRC-5 cell line. Particulars: Homo sapiens, MRC5, 120 h, read-out: Activity: IC50 value (nM) to MRC-5 cell line.
The next assay deals with T1, PLK1 (Homo sapiens, UniProt P53350).
T1 construct: endogenous in cells; host or cells: HeLa cells stably expressing LgBit, with CRISPR/Cas9 knock-in of HiBit at the endogenous PLK1 locus
T1 sequence (P53350 whole entry): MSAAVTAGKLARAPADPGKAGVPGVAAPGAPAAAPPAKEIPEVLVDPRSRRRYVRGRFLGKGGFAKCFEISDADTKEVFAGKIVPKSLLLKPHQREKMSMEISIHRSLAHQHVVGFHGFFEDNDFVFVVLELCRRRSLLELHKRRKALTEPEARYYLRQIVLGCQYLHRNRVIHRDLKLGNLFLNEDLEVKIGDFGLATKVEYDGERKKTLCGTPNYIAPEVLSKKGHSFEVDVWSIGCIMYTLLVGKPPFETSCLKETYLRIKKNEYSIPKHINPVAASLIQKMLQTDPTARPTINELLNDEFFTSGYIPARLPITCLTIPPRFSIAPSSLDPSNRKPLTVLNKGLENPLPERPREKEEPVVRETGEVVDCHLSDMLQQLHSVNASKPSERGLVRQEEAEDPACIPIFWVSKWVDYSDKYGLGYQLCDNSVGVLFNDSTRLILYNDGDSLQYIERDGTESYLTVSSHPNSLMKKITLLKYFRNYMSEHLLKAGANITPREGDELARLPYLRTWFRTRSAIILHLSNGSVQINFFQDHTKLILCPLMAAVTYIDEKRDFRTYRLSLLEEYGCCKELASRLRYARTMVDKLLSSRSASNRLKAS
As to the kind of experiment: Luciferase assay for PLK1 in HeLa LgBit (Plk1-HiBit KI) cell line. Conditions: 300 nM compound, luminescence after 9 hours. It counts as cell-based. The procedure, abridged:
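HeLa LgBit cells with endogenous Plk1 C-terminally HiBiT-tagged by CRISPR knock-in were synchronized by 2 mM thymidine block for 24 h, then released and seeded. After 18 h, Endurazine was added and compounds were dosed at 300 nM. Luminescence was tracked in real time; activity is the ratio to DMSO.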
A general note: HiBiT is a short tag that completes a luciferase, so light tracks the accessible tagged protein.

Method for MRC-5 cell line: Cell Viability Assay for MRC-5 Cell Line
(1) Culture of MRC-5 Cell Line
The MRC-5 cell line was purchased from Korea Cell Line Bank (KCLB), Seoul, Korea. Passage of cultured cells was maintained within P15.
(2) Treatment of Compounds of the Present Invention
6×10^3 cells were seeded for each well of a 96-well plate (SPL), and the cells were cultured in total volume of 150 μL.
Each well was mixed with a medium and treated, and the volume was set to 50 μL, so that the total volume of each well was 200 μL. Then, it was cultured in 37° C.
The following compounds were used as comparative examples, and the cell viability assay was performed in the same manner as in the compounds of Examples.
(3) Cytotoxicity Experiment
After treating EZ-Cytox (DOGEN, Cat. NO. EZ-3000, Lot. No. DLS2112) 20 μL in each well of completely cultured plate, it was cultured in 37° C. CO2 incubator for 4 hours. […] The data were converted into graphs using the Prism (ver. 9) program.

Broadly, the IC50 is the concentration needed to halve the response being measured. For the compound `COc1cc(C(=O)NC2CC(N(C)CCC3CCN(c4cccc(C5CCC(=O)NC5=O)c4)CC3)C2)ccc1Nc1ncc2c(n1)N(C(C)C)CC1(CC1)C(=O)N2C` (stereo not drawn) [Compound 6, N-(3-((2-(1-(3-(2,6-dioxopiperidin-3-yl)phenyl)piperidin-4-yl)ethyl)(methyl)amino)cyclobutyl)-4-((9′-isopropyl-5′-methyl-6′-oxo-5′,6′,8′,9′-tetrahydrospiro[cyclopropane-1,7′-pyrimido[4,5-b][1,4]diazepin]-2′-yl)amino)-3-methoxybenzamide], the 50% inhibitory concentration (IC50) is below 0.4 µM in the assay with H526 cell line and 12300 nM in the assay with MRC-5 cell line. The “Activity: ratio of the luminescence value of each Exemplary Compound treatment group to DMSO treatment group” value on PLK1 is reported as “++ (++ <0.6)”.
